Measured values published in BigSolDB 2.1.

COc1ccc2c3c1O[C@H]1[C@@H](O)C=C[C@H]4[C@@H](C2)N(C)CC[C@@]341.O=P(O)(O)O
solubility (mole fraction) (in NMP, 293.2 K): 0.00206
solubility (mole fraction) (in NMP, 298.2 K): 0.00212
solubility (mole fraction) (in NMP, 303.2 K): 0.00239
solubility (mole fraction) (in NMP, 308.2 K): 0.00249
solubility (mole fraction) (in NMP, 313.2 K): 0.00259
solubility (mole fraction) (in isopropanol, 293.2 K): 1.96e-05
solubility (mole fraction) (in isopropanol, 298.2 K): 2.52e-05
solubility (mole fraction) (in isopropanol, 303.2 K): 2.99e-05
solubility (mole fraction) (in isopropanol, 308.2 K): 3.6e-05
solubility (mole fraction) (in isopropanol, 313.2 K): 3.99e-05
